Measured values reported in patent publication US20080261978A1, “Chemokine receptor modulators” (priority 2007, published 2008).

How the values were obtained:
[1] = cited from earlier work
[2] = system: T-tropic HIV; assay: Phenoscreen HIV cellular entry inhibition assay (Monogram Biosciences); settings: Human immunodeficiency virus 1, read-out: IC50 value for viral entry inhibition

| SMILES | side effect in clinical study [1] | IC50 [2] [µM] |
| --- | --- | --- |
| c1cc(CN2CCCNCCNCCCNCC2)ccc1CN1CCCNCCNCCCNCC1 [AMD3100] | cardiac-related side effect |  |
| O=S(=O)(NC1CCCc2ccccc21)c1ccc(CNCc2ccccn2)cc1 (centres unmarked) [DE, 4-((pyridin-2-ylmethylamino)methyl)-N-(1,2,3,4-tetrahydronaphthalen-1-yl)benzenesulfonamide] |  | ≤ 10 |
| O=S(=O)(c1ccc(CNCc2ccccn2)cc1)N(Cc1ccccc1)Cc1nc2ccccc2[nH]1 [DH, N-((1H-benzo[d]imidazol-2-yl)methyl)-N-benzyl-4-((pyridin-2-ylmethylamino)methyl)benzenesulfonamide] |  | ≤ 10 |
| O=S(=O)(c1ccc(CNCCCN2CCOCC2)cc1)N(Cc1ccccc1)Cc1ccccc1 [DX, N,N-dibenzyl-4-((3-morpholinopropylamino)methyl)benzenesulfonamide] |  | ≤ 10 |
| CCNCc1ccc(S(=O)(=O)N(Cc2ccccc2)Cc2ccccc2)cc1 [DZ, N,N-dibenzyl-4-((ethylamino)methyl)benzenesulfonamide] |  | ≤ 10 |
